Drawing on PubChem BioAssay (NCI), this text covers GI50 and TGI for 21 molecules.

The structures appear in SMILES notation. Several values for one entry are separate records, joined by “and”; a condition that tells them apart may be missing. Equal entries are not always repeated.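 Protocol summary: plate cells (96-well), add compound at 5 concentrations, incubate 48 h, interpolate endpoints linearly. At the GI50, growth is halved. TGI marks complete inhibition of growth.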

The subject of the first test is CCRF-CEM leukemia. The experiment in a line: NCI-60 cell line screen, 48 h.
As to `COc1ccc(-c2nc3sccn3c2/C(N)=N/C(=N)N)cc1OC`, the GI50 is 38.4 µM and the TGI is more than 100 µM.
Consider `CCCCCCCCCCCCCCCCCC(CCCCCCCCCCCCCCCCC)OP(=O)(O)O`, for which the TGI was more than 100 µM.
`Cc1ccc(NC2=C(Cl)C(=O)N(Cc3ccccc3)C2=O)cc1O`: the GI50 was 29.6 µM and the TGI is more than 100 µM.
Molecule `O=C1C2C(C(=O)N1OS(=O)(=O)c1ccccc1)N(Cc1ccccc1)C(=O)N2Cc1ccccc1` (configuration not stated) displayed a TGI of more than 100 µM.
On the same count and under the same terms, in the case of `O=C(COc1ccc(Br)cc1Br)N1N=C(c2ccc([N+](=O)[O-])o2)CC1(O)c1ccccc1` (configuration not stated) it was 14.8 µM; in that of `N#CC(c1ccc(Cl)cc1)c1cccc(C(C#N)c2ccc(Cl)cc2)n1` (configuration not stated), more than 100 µM; in that of `Cc1nc2ccccc2c(=O)n1-c1ccccc1I`, more than 100 µM.
The molecule `O=C1/C(=C/c2ccccc2)CN(C(=O)C(Cl)(Cl)Cl)C/C1=C\c1ccccc1` returned a TGI of 3.86 µM.
For the molecule `CN/N=C(/Cc1occc(=O)c1O)C(=O)Nc1ccccc1C`, the TGI is more than 100 µM.

The test system of a further test is SR leukemia. The experiment in a line: NCI-60 cell line screen, 48 h.
For `CCOC(=O)[C@]1(OC(C)=O)C[C@H](OC(C)=O)[C@@H](C(F)COP(=O)(OCc2ccccc2)OCc2ccccc2)O1` (some centres not stated), the GI50 is 30.2 µM and > 100 µM; the TGI was more than 100 µM.
With `CC[C@@]1(O)C[C@H](OC2CC(N(C)C)C(O)C(C)O2)c2c(O)c3c(c(O)c2[C@H]1OC1CC(N(C)C)C(O)C(C)O1)C(=O)c1cccc(O)c1C3=O` (some centres not stated), the GI50 is less than 0.01 µM and the TGI came to 0.0273 µM.
The matching figures for `CC1(C)CCc2c(c3c(c4c(=O)c(O)c(-c5ccc(O)cc5)oc24)OC(C)(C)CC3)O1`: more than 100 µM and more than 100 µM.
For `CCCCCN(CCCCC)CC(O)c1cc(C)c2ccc3cc(C(C)C)ccc3c2c1` (configuration not stated) the same measures were 0.836 µM and 3.17 µM.
In the case of `COC(=O)CC1CCN(C#N)CC1CC[N+](=O)[O-]` (configuration not stated), the TGI was more than 100 µM.
On to `CC(C)CCC[C@@H](C)[C@H]1CC[C@H]2[C@@H]3CC=C4C[C@@H](C(C(=O)O)C(=O)O)CC[C@]4(C)[C@H]3CC[C@]12C`, for which the GI50 is 0.135 µM and the TGI was determined as 1.63 µM.
The matching figures for `COc1ccc(-c2nc3sccn3c2/C(N)=N/C(=N)N)cc1OC`: 30.5 µM and 77.3 µM.
Take `CC1=C(C(=O)Nc2ccc(Cl)c(Cl)c2)C(c2cccc(Oc3ccccc3)c2)NC(=S)N1` (configuration not stated): the GI50 was 44.9 µM and the TGI was more than 50 µM.
Consider `Nc1ccccc1SC(C[N+](=O)[O-])c1ccc2c(c1)OCO2` (configuration not stated), for which the TGI was found to be 4.82 µM.
`CCCCCCCCCCCCCCCCCC(CCCCCCCCCCCCCCCCC)OP(=O)(O)O` had a TGI of more than 100 µM.
Regarding `Cc1ccc(NC2=C(Cl)C(=O)N(Cc3ccccc3)C2=O)cc1O`, the GI50 is 6.91 µM and the TGI was more than 100 µM.
Turning to `N#CCCN(CCC#N)c1ccc(/C=C2\N=C(c3cc([N+](=O)[O-])ccc3Cl)OC2=O)cc1`, the TGI stood at 56.7 µM.
As for `O=C1C2C(C(=O)N1OS(=O)(=O)c1ccccc1)N(Cc1ccccc1)C(=O)N2Cc1ccccc1` (configuration not stated), the TGI is more than 100 µM.
`O=C(COc1ccc(Br)cc1Br)N1N=C(c2ccc([N+](=O)[O-])o2)CC1(O)c1ccccc1` (configuration not stated) came in with a TGI of 8.77 µM.
`O=C(Nc1ccccc1OC(F)(F)F)Nc1n[nH]c2ccccc12`: the GI50 was 0.0489 µM and the TGI was determined as 24 µM.
`N#CC(c1ccc(Cl)cc1)c1cccc(C(C#N)c2ccc(Cl)cc2)n1` (configuration not stated) registered a TGI of more than 100 µM.
As to `Cc1nc2ccccc2c(=O)n1-c1ccccc1I`, the TGI was more than 100 µM.
Still for that read-out and setting: as for `O=C1/C(=C/c2ccccc2)CN(C(=O)C(Cl)(Cl)Cl)C/C1=C\c1ccccc1`, the figure is 7.1 µM; as for `CN(C)C(=N)c1ccccc1`, more than 100 µM.
With `Cc1cc(I)cc(CN(C)CCCCN2CCCCC2)c1O`, the GI50 was 4.6 µM and the TGI turned out to be 17.9 µM.
Molecule `CN/N=C(/Cc1occc(=O)c1O)C(=O)Nc1ccccc1C` gave a TGI of more than 100 µM.

The test system of another test is HCC-2998 colon. The experiment in a line: NCI-60 cell line screen, 48 h.
Molecule `CCOC(=O)[C@]1(OC(C)=O)C[C@H](OC(C)=O)[C@@H](C(F)COP(=O)(OCc2ccccc2)OCc2ccccc2)O1` (some centres not stated) showed a TGI of more than 100 µM.
In the case of `CC[C@@]1(O)C[C@H](OC2CC(N(C)C)C(O)C(C)O2)c2c(O)c3c(c(O)c2[C@H]1OC1CC(N(C)C)C(O)C(C)O1)C(=O)c1cccc(O)c1C3=O` (some centres not stated), the GI50 is less than 0.01 µM; the TGI was 0.0759 µM and 0.0216 µM.
As to `CC1(C)CCc2c(c3c(c4c(=O)c(O)c(-c5ccc(O)cc5)oc24)OC(C)(C)CC3)O1`, the GI50 is more than 100 µM and the TGI was more than 100 µM.
Consider `CCCCCN(CCCCC)CC(O)c1cc(C)c2ccc3cc(C(C)C)ccc3c2c1` (configuration not stated), for which the GI50 was 1.85 µM and the TGI came out at 3.4 µM.
`COC(=O)CC1CCN(C#N)CC1CC[N+](=O)[O-]` (configuration not stated) gave a TGI of more than 100 µM.
`CC(C)CCC[C@@H](C)[C@H]1CC[C@H]2[C@@H]3CC=C4C[C@@H](C(C(=O)O)C(=O)O)CC[C@]4(C)[C@H]3CC[C@]12C`: the GI50 is 0.185 µM and the TGI came to 1.28 µM.
On to `COc1ccc(-c2nc3sccn3c2/C(N)=N/C(=N)N)cc1OC`, for which the GI50 was 43.1 µM and the TGI was more than 100 µM.
`Nc1ccccc1SC(C[N+](=O)[O-])c1ccc2c(c1)OCO2` (configuration not stated) showed a TGI of 3.17 µM.
Same read-out and setting: as for `CCCCCCCCCCCCCCCCCC(CCCCCCCCCCCCCCCCC)OP(=O)(O)O`, the figure is more than 100 µM; as for `N#CCCN(CCC#N)c1ccc(/C=C2\N=C(c3cc([N+](=O)[O-])ccc3Cl)OC2=O)cc1`, 52.6 µM.
Molecule `O=C1C2C(C(=O)N1OS(=O)(=O)c1ccccc1)N(Cc1ccccc1)C(=O)N2Cc1ccccc1` (configuration not stated) showed a TGI of more than 100 µM.
`O=C(COc1ccc(Br)cc1Br)N1N=C(c2ccc([N+](=O)[O-])o2)CC1(O)c1ccccc1` (configuration not stated) registered a TGI of 23.1 µM.
As to `O=C(Nc1ccccc1OC(F)(F)F)Nc1n[nH]c2ccccc12`, the GI50 is 55.9 µM and the TGI was more than 100 µM.
For the molecule `N#CC(c1ccc(Cl)cc1)c1cccc(C(C#N)c2ccc(Cl)cc2)n1` (configuration not stated), the TGI was more than 100 µM.
The same measure, in the same setting: as for `Cc1nc2ccccc2c(=O)n1-c1ccccc1I`, the figure is more than 100 µM; as for `CN(C)C(=N)c1ccccc1`, more than 100 µM.
Take `Cc1cc(I)cc(CN(C)CCCCN2CCCCC2)c1O`: the GI50 was 16 µM and the TGI came out at 30.1 µM.
The molecule `CN/N=C(/Cc1occc(=O)c1O)C(=O)Nc1ccccc1C` came in with a TGI of more than 100 µM.
